Data published in patent publication US20130079309A1, “Method Of Treating Acute Lung Injury Using Sphingosine 1 Phosphate Analogs Or Sphingosine 1 Phosphate Receptor Agonists” (The Board of Trustees of the University of Illinois, priority 2010, published 2013).

Columns and labels:
[1] = test system: LPS-induced lung injury in C57BL/6 mice; details: single intraperitoneal injection; Peng et al., 2004; cited from earlier work
MLC = assay: Western blotting of HPAEC lysates for phospho-MLC; assay type: cell-based, human; details: 5 min
Protocol: (§1) After treatment as outlined for individual experiments, confluent HPAEC were lysed for Western blotting with phospho-MLC, pan-MLC, phospho-ERK, or pan-ERK antibodies. […] Membranes were then immunoblotted with primary antibodies (1:500-1000, 4° C., overnight) followed by secondary antibodies conjugated to horseradish peroxidase (1:5000, room temperature, 30 min) and detected with enhanced chemiluminescence (Pierce ECL or SuperSignal West Dura; Pierce Biotechnology, Rockford, Ill.) on Biomax MR film (Carestream Health, Rochester, N.Y.).

HPAEC [2] = assay: Immunofluorescence of F-actin cytoskeletal rearrangement; assay type: cell-based, human; details: 1 μM, 5 min (FTY720 5 and 30 min)
Protocol: Immunofluorescence was used to assess cytoskeletal rearrangements of […] cells in response to treatment with FTY720 analogs. Confluent HPAEC were stimulated with vehicle control or 1 μM S1P, 1R, 2R, or 3R for 5 min or with FTY720 (1 μM) for 30 min. EC were then fixed in 3.7% formaldehyde for 10 min, permeabilized with 0.25% Triton X-100 for 5 min, washed in PBS, blocked with 2% bovine serum albumin in Tris-buffered saline with Tween 20 for 1 h, and then incubated for 1 h at room temperature with the primary antibody of interest. After washing, EC were incubated with the appropriate secondary antibody conjugated to immunofluorescent dyes (or Texas Red-conjugated phalloidin for actin staining) for 1 h at room temperature. After further washing with Tris-buffered saline with Tween 20, coverslips were mounted using Prolong Anti-Fade Reagent (Invitrogen) and analyzed using a Nikon Eclipse TE2000 inverted microscope (Nikon, Melville, N.Y.).

HPAEC [3] = assay: Transendothelial electrical resistance (TER) of HPAEC; assay type: cell-based, human; details: for maximal TER change: 10 μM
Protocol: Cells were grown at 37° C. in a 5% CO2 incubator, and passages 6 to 9 were used for experiments. Media were changed 1 day before experimentation.

HPAEC [4] = assay: Transwell transendothelial permeability assay (FITC-dextran); assay type: cell-based, human; details: 1 μM (3R, 3S 25 μM), 1 h before FITC-dextran, 2-h incubation
Protocol: As a complementary approach to further characterize the barrier-protective effects of these FTY720 analogs in vitro, the permeability of FITC-labeled dextran across the pulmonary EC monolayer was assayed in response to treatment by the FTY720 analogs. […] Data were normalized to unstimulated control. n=3 independent experiments per condition; *, p<0.01 versus unstimulated condition (see FIG. 26).

[5] = test system: bleomycin-induced ALI in C57/BL6 mice; details: Shea et al., 2010; cited from earlier work
HPAEC [6] = assay: Intracellular calcium by Fura-2; assay type: cell-based, human; details: 1 μM
Protocol: To further explore the mechanistic differences in barrier regulation, intracellular calcium responses to the FTY720 analogs, S1P, and FTY720 were examined using Fura-2 (Harbeck et al., 2006, Sci STKE 2006: p16). HPAEC plated on 25-mm glass coverslips were loaded with 1 μM Fura-2/acetoxymethyl ester (Invitrogen, Carlsbad, Calif.) for 20 min at 37° C. in KRBH5 buffer (Krebs-Ringer-bicarbonate solution containing 119 mM NaCl, 4.7 mM KCl, 2.5 mM CaCl2, 1 mM MgCl2, 1 mM KH2PO4, 25 mM NaHCO3, mM HEPES-NaOH (pH 7.4), and 5 mM glucose). After replacement of the Fura-2 loading buffer with fresh KRBH5, coverslips were placed into the specimen stage of an inverted fluorescence microscope (Nikon TE-2000U). A Nikon Super Fluor 10× objective was used for these studies. Filters (340- and 380-nm excitation and 530-nm emission) were used for Fura-2 dual excitation ratio imaging. […] Fura-2 ratios were converted to [Ca^2+] using the equation: [Ca^2+]=(Kd′[(R−Rmin)/(Rmax−R)]×Sf/Sb) (Grynkiewicz et al., 1985, J Biol Chem 260: 3440-3450), where Kd′ is the dissociation constant for Fura-2 in the cytosol (225 nM) and Sf and Sb are the measured emission intensities at 380 nm for Ca^2+-free and Ca^2+-bound Fura-2, respectively. Data summaries for all Ca^2+ measurements are expressed as the means±S.E.

ERK = assay: Western blotting of HPAEC lysates for phospho-ERK; assay type: cell-based, human; details: 5 min
Protocol: as §1

S1P receptor 1 (S1PR1) = target: T1, S1P receptor 1 (S1PR1) (Mus musculus, UniProt O08530); assay: S1PR1 levels in lung homogenates of bleomycin mice by Western blotting; assay type: in vivo; details: 14 days after bleomycin
T1 construct: Lung homogenates were collected 14 days after bleomycin instillation; from tissue; host or cells: mouse lung (C57/BL6, bleomycin-injured)
T1 sequence (O08530 whole entry): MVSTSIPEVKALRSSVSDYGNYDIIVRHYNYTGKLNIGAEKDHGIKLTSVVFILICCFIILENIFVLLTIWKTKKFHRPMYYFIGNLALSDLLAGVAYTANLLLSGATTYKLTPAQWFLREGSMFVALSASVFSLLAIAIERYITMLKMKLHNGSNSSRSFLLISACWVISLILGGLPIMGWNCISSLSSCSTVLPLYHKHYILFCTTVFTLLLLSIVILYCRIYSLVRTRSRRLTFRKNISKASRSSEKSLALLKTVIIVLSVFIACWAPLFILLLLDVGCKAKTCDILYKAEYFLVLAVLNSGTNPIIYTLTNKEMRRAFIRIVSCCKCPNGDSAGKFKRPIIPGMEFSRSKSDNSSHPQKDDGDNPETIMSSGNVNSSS
Protocol: Lung homogenates were collected 14 days after bleomycin instillation. S1PR1 protein expression was determined by Western blotting (representative blots shown), quantified by densitometry, and normalized to actin concentration in the samples. Mean±S.D. is shown. N=2-3 animals per group.
As discussed above, (S)-FTY720-phosphonate maintains S1PR1 expression in mouse lungs after 24 hr relative to other S1PR1 agonists (FIG. 17). The data shown in FIG. 23 extend these observations to 14 days.

## CCCCCCCCc1ccc(CCC(N)(CO)CO)cc1 [FTY720, 2-amino-2-[2-(4-octylphenyl)ethyl]propane-1,3-diol]
[1]
  murine LPS induced pulmonary injury, 24 hours after LPS: attenuate murine LPS induced-pulmonary injury
MLC
  MLC phosphorylation: Neither FTY720 nor any of its analogs induced significant MLC phosphorylation
HPAEC [2]
  cortical actin ring formation / F-actin rearrangement: failed to elicit cortical actin ring formation
HPAEC [3]; 1 μM
  TER response (tracing): delayed onset of barrier enhancement
HPAEC [3]; within 60 min
  maximal TER change: somewhat barrier-disruptive
HPAEC [4]
  EC permeability to FITC-dextran vs control EC: significantly decreased permeability
[5]
  lung injury and mortality in bleomycin-injured mice on prolonged exposure: increased lung injury and mortality
HPAEC [6]
  intracellular calcium [Ca2+]i: only S1P produced a transient Ca^2+ spike

## CCCCCCCCc1ccc(CC[C@@](N)(CO)CCP(=O)(O)O)cc1 [1S, (S)-3-amino-3-(hydroxymethyl)-5-(4-octylphenyl)pentylphosphonic acid]
ERK
  ERK phosphorylation: failed to induce phosphorylation
HPAEC [3]; 1 μM, within 60 min
  maximal percentage TER change compared with S1P and FTY720: greater maximal percentage TER change
HPAEC [3]; within 60 min
  maximal TER change: even greater maximal TER elevation
S1P receptor 1 (S1PR1)
  S1PR1 levels in lungs, compared to FTY720-treated animals: higher levels of S1PR1
